Assay results as given in US8481494B2, “Compounds for the treatment of diseases related to protein misfolding” (priority 2009, dated 2013).
Values after ≈ are worked out from the molar mass of the structure shown. Where two headings read alike, the source gives them in different places.

Tests used:
[1] = target: T1, Aβ(1-42) (Homo sapiens, UniProt P05067); experiment: ThT equilibrium inhibition assay of Aβ aggregation; type: biochemical; details: for ThT values compared with the original trimer: Aβ(1-42), in words
T1 construct: Aβ(1-42)-peptide (Bachem, Bubendorf, Germany) was prepared in HFIP; purchased Bachem, Bubendorf
Procedure: After 72 h, the aggregation process has reached a maximum in the absence or presence of any trimeric ligand, even for the slow Aβ (1-40) peptide. The respective equilibrium concentration is then indicated by the relative fluorescence intensity reached at the end point. The full series of new aminopyrazole trimer derivatives was subjected to ThT inhibition experiments and the final equilibrium was analyzed by comparison of the respective fluorescence intensities of intercalated dye at 482 nm (exc. at 442 nm). […] Their proposed mechanism of action is discussed within the next chapters together with all the other biophysical, biochemical as well as modeling data.
(§1) Thioflavin T (ThT) measurements were carried out in a 384-well plate (Nunc GmbH, Wiesbaden, Germany) in an InfiniTe 200 plate reader (Tecan GmbH, Crailsheim, Germany). Fluorescence intensity was measured at 37° C., 446 nm excitation wavelength (bandwidth 9 nm) and 490 nm emission wavelength with a bandwidth of 20 nm. Each data point was averaged over 40 lamp flashes. Each measurement cycle was started by shaking the sample carrier orbitally for 30 s at medium intensity to avoid settling of larger aggregates. The 384-well plate was covered with a transparent and DMSO-stable film (Nunc GmbH, Wiesbaden, Germany). Each single sample was composed of 33 μM Aβ(1-40) or rather Aβ(1-42) in 10 mM PBS (phosphate buffered saline), 10.7% DMSO, 10 μM ThT and 198 μM of the test compound. For graph representation emission values of fourfold samples were averaged. Each test compound was measured separately, both in 10 mM PBS and 10 mM PBS with ThT to exclude any potential interactions between ligand and ThT.
The ThT assay solution was briefly centrifugated and it was pipetted in a 384-well plate. The ThT fluorescence was measured at λEx=446 nm and λEm=490 nm. Each point is the average of quadruplication.

[2] = target: T2, preformed Aβ(1-42) fibrils (Homo sapiens, UniProt P05067); experiment: ThT equilibrium disaggregation assay of preformed fibrils; type: biochemical; details: 33 μM Aβ42 preformed fibrils, 198 μM ligand, 10 mM PBS pH 7.3
T2 construct: Aβ(1-42)-peptide (Bachem, Bubendorf, Germany) was prepared in HFIP; purchased Bachem, Bubendorf
Text: Starting from preformed fibrils, the disassembly process was also monitored with the full series of modified trimeric aminopyrazoles. […] In other words, little difference is observed between the end points of aggregation assays, in which the ligand inhibits de novo aggregation starting from monomeric Aβ molecules, and those experiments, which require disaggregation of preformed fibrils by externally added ligand. Experimental evidence is thus provided for the fact, that aminopyrazole ligands operate in a fully reversible fashion, and reach an open equilibrium when the thermodynamically most favorable complex is formed.
as §1
After that, 9.5 μL ThT (62.7 μM stock solution) was pipetted and the assay solution was briefly centrifugated. The ThT fluorescence was measured at λEx=446 nm and λEm=490 nm. For graph representation emission values of fourfold samples were averaged.

[3] = Solubility of the unprotected aminopyrazole trimers (stock solutions); details: water (class a) or DMSO (class b)
Procedure: The ligands were dissolved in 100% DMSO as 4.95 mM stock solutions and were stored at −20° C.

[4] = tested on: differentiated rat pheochromocytoma (PC-12) cells; experiment: cells; details: for PC-12 cell protection: in words, compared to the Trimer standard
Procedure: Next, to examine whether the aminopyrazole trimers could protect cell from Aβ42-induced neurotoxicity, cells were treated for […] with 10 μM Aβ(1-42), a concentration that produces 30 to 40% decrease in cell viability, in the absence or presence of 100 μM of each compound. The viability of the cells then was assessed using the MTT assay.
MTT viability assays. Cell viability assays were performed as described in Fradinger et al. (Fradinger et al., PNAS, 2008). Rat pheochromocytoma (PC-12) cells were maintained in F-12 nutrient mixture with Kaighn's modification (F-12K) (Gibco BRL, Carlsbad, Calif.) with 15% heat-inactivated horse serum and 2.5% FBS at 37° C. in an atmosphere of 5% CO2. For cell viability assays, cells were plated in 96-well plates at a density of 25,000 cells per well in differentiation media (F-12K, 0.5% FBS, […] nerve growth factor) and maintained for 48 h. Aβ42 was solubilized in a minimal amount of DMSO (Sigma) and then diluted in the F-12K media in the absence or presence of the compounds and then added to cells and incubated for 48 h at 37° C. The final Aβ42 concentration was always kept constant at 10 μM. The stock solutions of the compounds were prepared at 10 mM in DMSO and diluted in the F-12K media at the required concentration. Negative controls included DMSO at the same concentration as in the peptide solutions and media alone. A positive control was […] staurosporine as lethal dose which represented 100% reduction in cell viability, based on which the percentage viability of all of the experimental conditions was calculated. Cell viability was assessed quantitatively by the CellTiter 96 Non-Radioactive Cell Proliferation Assay (Promega). Briefly, 15 μl of 3-(4,5-dimethylthiazol-2-yl)-2,5-diphenyltetra-zolium bromide (MTT) dye solution was incubated with the cells for 3 h. Then 100 μl of solubilization/stop solution was added and the plates were incubated overnight in the dark to ensure complete solubilization. Plates were read by using a Synergy HT microplate reader (BioTek), and the absorbance at 570 nm (formazan product) minus the absorbance at 630 nm (background) was recorded. Corrected absorbance was used to calculate the percent cell viability from the experimental change (Amedia-Aexperimental) over the dynamic range (Amedia-Astaurosporine). At least three independent experiments with six replicates (n≧18) were carried out, and the results were averaged.
To determine the IC50 value of each of the compounds, dose-dependence MTT experiments with the compounds were conducted. Aβ42 was used at 10 μM and the compounds were used at 100, 30, 10, 3, 1 and 0.3 μM. Three independent experiments with six replicates (n≧18) were carried out, and results were averaged. The data for each compound was fitted to the following equation to get the IC50 values. y=Bottom+((Top−Bottom)/(1+10^(x-log(IC^50^))))
Top: the y value at which the top of the sigmoidal curve becomes parallel to the X-axis; Bottom: the y value at which the bottom of the sigmoidal curve becomes parallel to the X-axis.
Also, MTT viability assays were run with differentiated PC-12 cells.

[5] = Rattus norvegicus, PC-12, read-out: IC50 of inhibition of Aβ-induced toxicity

T1 sequence (P05067 672-713 limits assumed): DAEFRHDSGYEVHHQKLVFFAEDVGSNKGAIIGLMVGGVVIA
T2 sequence (P05067 672-713 limits assumed): as above

| Molecule | solubility [3] [mM] | ThT values compared with the original trimer [1] | IC50 [4, 5] [µM] | also measured |
| --- | --- | --- | --- | --- |
| 1-(3-(3-(3-nitro-1H-pyrazole-5-carboxamido)-1H-pyrazole-5-carbox-amido)-1H-pyrazol-5-yl)-1-oxo-5,8,11-trioxa-2-azatridecan-13-carboxamido-(S)-lysinyl-(S)-lysinyl-(S)-lysinyl-(S)-lysinyl-(S)-lysinyl-(S)-glycine [Trimer-TEG-KKKKKG-OH] |  |  |  | ThT fluorescence level, inhibition of aggregation ([1]; 33 μM Aβ42, 198 μM ligand, 10 mM PBS pH 7.3, 72 h): 20%; ThT fluorescence level, disaggregation [2]: 20% |
| NCCCC[C@H](NC(=O)c1cc(NC(=O)c2cc(NC(=O)c3cc([N+](=O)[O-])n[nH]3)n[nH]2)n[nH]1)C(=O)NCCCOCCOCCOCCCNC(=O)[C@H](CCCCN)NC(=O)c1cc(NC(=O)c2cc(NC(=O)c3cc([N+](=O)[O-])n[nH]3)n[nH]2)n[nH]1 [Trim-Lys-TEGDA-Lys-Trim, N,N′-((5S,23S)-1,27-diamino-6,22-dioxo-11,14,17-trioxa-7,21-diazaheptacosane-5,23-diyl)bis(3-(3-(3-nitro-1H-pyrazole-5-carboxamido)-1H-pyrazole-5-carboxamido)-1H-pyrazole-5-carboxamide)] | > 4.95 |  | 21.5 |  |
| CC(NC(=O)C(NC(=O)c1cc(NC(=O)c2cc(NC(=O)c3cc([N+](=O)[O-])n[nH]3)n[nH]2)n[nH]1)C1CCCCC1)C1CCCCC1 (stereo not drawn) [Trimer-Chg-Che, N-(1-Cyclohexyl-2-(1-cyclohexylethylamino)-2-oxoethyl)-3-(3-(3-nitro-1H-pyrazol-5-carboxamido)-1H-pyrazol-5-carboxamido)-1H-pyrazol-5-carboxamide] | 0.2 to 4.95 (≈ 125 to 3090 µg/mL) |  | 81 |  |
| O=C(O)CCCNC(=O)c1cc(NC(=O)c2cc(NC(=O)c3cc([N+](=O)[O-])n[nH]3)n[nH]2)n[nH]1 [Trimer-GABA-OH, 4-(3-(3-(3-Nitro-1H-pyrazole-5-carboxamido)-1H-pyrazole-5-carboxamido)-1H-pyrazole-5-carboxamido)butanoic acid] | 0.2 to 4.95 (≈ 92.1 to 2280 µg/mL) | above the trimer standard | 18.5 |  |
| COC(=O)CCCNC(=O)c1cc(NC(=O)c2cc(NC(=O)c3cc([N+](=O)[O-])n[nH]3)n[nH]2)n[nH]1 [Trimer-GABA-OMe, 4-(3-(3-(3-Nitro-1H-pyrazole-5-carboxamido)-1H-pyrazole-5-carboxamido)-1H-pyrazole-5-carboxamido)butanoic acid methyl ester] | 0.2 to 4.95 (≈ 94.9 to 2350 µg/mL) | above the trimer standard | 20.3 |  |
| CC(NC(=O)C(CCCCN)NC(=O)c1cc(NC(=O)c2cc(NC(=O)c3cc([N+](=O)[O-])n[nH]3)n[nH]2)n[nH]1)C1CCCCC1.O=C(O)C(F)(F)F (stereo not drawn) [Trimer-Lys-Che, N-(6-Amino-1-(1-cyclohexylethylamino)-1-oxohexan-2-yl)-3-(3-(3-nitro-1H-pyrazole-5-carboxamido)-1H-pyrazole-5-carboxamido)-1H-pyrazole-5-carboxamide-trifluoro-acetate] | > 4.95 | surpass the original trimer activity |  |  |
| CC(NC(=O)COCCOCCOCCNC(=O)c1cc(NC(=O)c2cc(NC(=O)c3cc([N+](=O)[O-])n[nH]3)n[nH]2)n[nH]1)C1CCCCC1 (stereo not drawn) [Trimer-TEG-Che, N-(13-Cyclohexyl-11-oxo-3,6,9-trioxa-12-azatetradecyl)-3-(3-(3-nitro-1H-pyrazole-5-carboxamido)-1H-pyrazole-5-carboxamido)-1H-pyrazole-5-carboxamide] | 0.2 to 4.95 (≈ 135 to 3330 µg/mL) |  |  |  |
| CCCCCCCCCCCCNC(=O)COCCOCCOCCNC(=O)c1cc(NC(=O)c2cc(NC(=O)c3cc([N+](=O)[O-])n[nH]3)n[nH]2)n[nH]1 [Trimer-TEG-Dodecyl, 3-Nitro-N-(5-(5-(11-oxo-3,6,9-trioxa-12-azatetracosylcarbamoyl)-1H-pyrazol-3-ylcarbamoyl)-1H-pyrazol-3-yl)-1H-pyrazole-5-carboxamide] | 0.2 to 4.95 (≈ 146 to 3620 µg/mL) |  | > 100 |  |
| CCOC(=O)COCCOCCOCCNC(=O)c1cc(NC(=O)c2cc(NC(=O)c3cc([N+](=O)[O-])n[nH]3)n[nH]2)n[nH]1 [Trimer-TEG-OEt, 1-(3-(3-(3-Nitro-1H-pyrazole-5-carboxamido)-1H-pyrazole-5-carboxamido)-1H-pyrazole-5-yl)-1-oxo-5,8,11-trioxa-2-azatridecan-13-oic acid ethyl ester] | 0.2 to 4.95 (≈ 119 to 2930 µg/mL) |  |  | PC-12 cell protection [4]: only very modest |
| Trimer-TEG-LPFFD-OH [1-(3-(3-(3-nitro-1H-pyrazole-5-carboxamido)-1H-pyrazole-5-carbox-amido)-1H-pyrazol-5-yl)-1-oxo-5,8,11-trioxa-2-azatridecan-13-carboxamido-(S)-leucinyl-(S)-prolinyl-(S)-phenylalaninyl-(S)-phenylalaninyl-(S)-aspartic acid] |  |  |  | IC50 ([4]; read-out: IC50 of inhibition of Aβ-induced toxicity, PC-12 cells, MTT, Aβ42 10 μM, ligand 0.3-100 μM): 10.1 µM |

Second part, led by results:

| solubility [3] [mM] | ThT values compared with the original trimer [1] | Molecule | IC50 [4, 5] [µM] | also measured |
| --- | --- | --- | --- | --- |
| 0.2 to 4.95 (≈ 96.9 to 2400 µg/mL) | surpass the original trimer activity | CC(NC(=O)c1cc(NC(=O)c2cc(NC(=O)c3cc([N+](=O)[O-])n[nH]3)n[nH]2)n[nH]1)C1CCCCC1 (stereo not drawn) [Trimer-Che, N-(1-Cyclohexylethyl)-3-(3-(3-nitro-1H-pyrazole-5-carboxamido)-1H-pyrazole-5-carboxamido)-1H-pyrazole-5-carboxamide] |  |  |
| 0.2 to 4.95 (≈ 113 to 2790 µg/mL) |  | O=C(O)COCCOCCOCCNC(=O)c1cc(NC(=O)c2cc(NC(=O)c3cc([N+](=O)[O-])n[nH]3)n[nH]2)n[nH]1 [Trimer-TEG-OH, {2-[2-(2-{[5-({5-[(5-Nitro-2H-pyrazole-3-carbonyl)-amino]-2H-pyrazole-3-carbonyl}-amino)-2H-pyrazole-3-carbonyl]-amino}-ethoxy)-ethoxy]-ethoxy}-acetic acid] | 35.3 | PC-12 cell protection [4]: only very modest |
| 0.2 to 4.95 (≈ 83.5 to 2070 µg/mL) | above the trimer standard | NCCNC(=O)c1cc(NC(=O)c2cc(NC(=O)c3cc([N+](=O)[O-])n[nH]3)n[nH]2)n[nH]1 [Trimer-diamine, N-(2-Aminoethyl)-3-(3-(3-nitro-1H-pyrazole-5-carboxamido)-1H-pyrazole-5-carboxamido)-1H-pyrazole-5-carboxamide] |  |  |
